Experimental data from ChEMBL document CHEMBL1201862, “PubChem BioAssay data set” (2004).
Calls of active or inactive are those of the source.

Assays:
cells [1] = format: functional, cell-based
INS1 = assay: INS-1E survival protection against cytokine death – cell-based, luminescence, retest, dose response (AID 449756); format: functional; conditions: Rattus norvegicus;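 also: cell death triggered by IL-1 beta plus TNF-alpha plus IFN-gamma mixture; protective hits raise ATP signal compared with cytokine alone wells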
HEK293 = assay: EBV LMP1 TES2 canonical NF-kB signalling blockers – cell-based, HEK293, luciferase, cherry-pick, dose response (AID 588343); format: functional; conditions: Homo sapiens
cells [2] = format: functional, cell-based; remark: listed apart in the source
Streptococcus = assay: GAS UMAA2166 growth inhibition – luminescence, BacTiterGlo, counter-screen for streptokinase expression inhibitor project, dose response (AID 1915); format: functional, organism-based;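 also: potency for reduction of bacterial viability or growth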
[3] = THP-1 cell cytotoxicity, dose response, cytotoxicity control for non-replicating M. tuberculosis project (AID 489025); format: functional
Exodeoxyribonuclease V = Exodeoxyribonuclease V (Escherichia coli (strain K12), UniProt P04993+P07648+P08394); assay: RecBCD inhibition via phage-restricted bacterial growth – absorbance, V66 E. coli, mutant T4 phage, counter-screen for AddAB inhibitor project, dose response (AID 492957); format: functional, cell-based, Escherichia coli str. K-12 substr. MG1655
Chain of Exodeoxyribonuclease V (P04993 whole entry): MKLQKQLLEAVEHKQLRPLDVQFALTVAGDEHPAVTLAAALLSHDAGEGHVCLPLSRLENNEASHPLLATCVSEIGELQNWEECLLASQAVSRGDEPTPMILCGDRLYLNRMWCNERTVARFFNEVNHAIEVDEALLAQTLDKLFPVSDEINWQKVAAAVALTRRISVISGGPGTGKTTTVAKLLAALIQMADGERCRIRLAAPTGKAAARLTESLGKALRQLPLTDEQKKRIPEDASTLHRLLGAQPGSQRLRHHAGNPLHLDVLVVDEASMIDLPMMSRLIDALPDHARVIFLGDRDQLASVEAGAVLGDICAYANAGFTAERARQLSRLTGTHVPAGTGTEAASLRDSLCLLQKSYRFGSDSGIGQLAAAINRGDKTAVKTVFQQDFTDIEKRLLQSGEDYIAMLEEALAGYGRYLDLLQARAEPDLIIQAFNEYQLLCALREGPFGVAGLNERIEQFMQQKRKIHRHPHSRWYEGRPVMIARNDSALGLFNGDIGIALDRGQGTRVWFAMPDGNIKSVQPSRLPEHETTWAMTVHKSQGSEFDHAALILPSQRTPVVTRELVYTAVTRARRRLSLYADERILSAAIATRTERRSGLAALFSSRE
Chain of Exodeoxyribonuclease V (P07648 whole entry): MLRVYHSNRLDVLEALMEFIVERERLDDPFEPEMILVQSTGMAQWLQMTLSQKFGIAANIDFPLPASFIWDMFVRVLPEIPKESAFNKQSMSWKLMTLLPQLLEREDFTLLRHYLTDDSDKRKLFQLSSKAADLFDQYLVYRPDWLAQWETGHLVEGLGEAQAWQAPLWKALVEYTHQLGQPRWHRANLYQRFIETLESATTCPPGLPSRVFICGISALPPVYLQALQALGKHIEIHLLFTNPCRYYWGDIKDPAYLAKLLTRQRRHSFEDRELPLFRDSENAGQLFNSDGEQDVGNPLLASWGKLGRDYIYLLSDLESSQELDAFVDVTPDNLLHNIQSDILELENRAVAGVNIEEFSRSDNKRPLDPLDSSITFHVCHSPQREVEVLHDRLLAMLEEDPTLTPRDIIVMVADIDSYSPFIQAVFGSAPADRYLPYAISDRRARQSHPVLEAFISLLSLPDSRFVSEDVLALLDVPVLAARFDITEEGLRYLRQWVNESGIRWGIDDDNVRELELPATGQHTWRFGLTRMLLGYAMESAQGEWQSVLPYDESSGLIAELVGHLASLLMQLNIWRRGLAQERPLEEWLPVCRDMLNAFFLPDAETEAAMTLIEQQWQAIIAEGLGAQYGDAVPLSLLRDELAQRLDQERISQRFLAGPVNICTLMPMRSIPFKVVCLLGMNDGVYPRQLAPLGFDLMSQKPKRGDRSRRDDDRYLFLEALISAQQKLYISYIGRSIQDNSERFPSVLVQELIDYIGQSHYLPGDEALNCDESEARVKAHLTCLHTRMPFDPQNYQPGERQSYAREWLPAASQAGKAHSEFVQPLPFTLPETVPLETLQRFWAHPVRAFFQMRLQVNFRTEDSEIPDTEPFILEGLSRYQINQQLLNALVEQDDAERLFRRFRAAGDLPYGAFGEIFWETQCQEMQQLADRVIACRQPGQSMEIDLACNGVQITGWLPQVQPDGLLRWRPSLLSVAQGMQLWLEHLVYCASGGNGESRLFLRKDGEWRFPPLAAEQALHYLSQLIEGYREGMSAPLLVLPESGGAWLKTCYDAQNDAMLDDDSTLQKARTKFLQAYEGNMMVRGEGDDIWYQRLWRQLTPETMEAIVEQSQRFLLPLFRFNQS
Chain of Exodeoxyribonuclease V (P08394 whole entry): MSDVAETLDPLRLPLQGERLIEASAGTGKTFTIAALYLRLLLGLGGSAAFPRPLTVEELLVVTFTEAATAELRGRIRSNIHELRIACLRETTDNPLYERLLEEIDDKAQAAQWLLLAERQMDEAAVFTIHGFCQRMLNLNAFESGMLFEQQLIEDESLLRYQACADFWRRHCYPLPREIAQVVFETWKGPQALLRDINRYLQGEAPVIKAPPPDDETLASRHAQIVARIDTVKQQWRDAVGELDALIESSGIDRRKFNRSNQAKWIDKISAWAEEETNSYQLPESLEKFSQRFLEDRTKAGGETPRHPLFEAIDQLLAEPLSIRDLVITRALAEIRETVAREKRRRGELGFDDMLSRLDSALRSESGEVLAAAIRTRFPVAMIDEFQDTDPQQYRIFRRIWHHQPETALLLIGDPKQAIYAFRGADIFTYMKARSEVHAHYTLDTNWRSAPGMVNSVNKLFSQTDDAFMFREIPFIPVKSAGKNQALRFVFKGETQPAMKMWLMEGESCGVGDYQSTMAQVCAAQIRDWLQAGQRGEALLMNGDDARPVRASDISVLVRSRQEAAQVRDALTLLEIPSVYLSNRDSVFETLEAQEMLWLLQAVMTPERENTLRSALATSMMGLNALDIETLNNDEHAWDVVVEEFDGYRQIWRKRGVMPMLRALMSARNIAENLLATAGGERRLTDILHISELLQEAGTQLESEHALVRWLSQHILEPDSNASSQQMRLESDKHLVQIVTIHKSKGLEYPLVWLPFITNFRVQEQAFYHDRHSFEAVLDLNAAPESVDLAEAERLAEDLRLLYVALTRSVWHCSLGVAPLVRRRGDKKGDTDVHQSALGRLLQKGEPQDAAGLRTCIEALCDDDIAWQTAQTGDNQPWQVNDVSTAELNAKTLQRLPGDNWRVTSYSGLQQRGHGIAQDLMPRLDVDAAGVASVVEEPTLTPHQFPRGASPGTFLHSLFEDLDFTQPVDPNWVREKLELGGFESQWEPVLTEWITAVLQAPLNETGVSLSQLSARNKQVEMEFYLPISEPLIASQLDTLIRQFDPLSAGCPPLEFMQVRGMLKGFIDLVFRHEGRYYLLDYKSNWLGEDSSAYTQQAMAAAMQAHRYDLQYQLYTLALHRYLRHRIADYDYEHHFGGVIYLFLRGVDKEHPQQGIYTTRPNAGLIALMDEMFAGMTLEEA

[4] = Vero E6 cell cytotoxicity, dose response, cytotoxicity control for non-replicating M. tuberculosis project, secondary assay (AID 492998); format: functional, VeroE6; conditions: Vero C1008
[5] = Luminescence-based counterscreen assay for KLF5 inhibitors: dose response cell-based high throughput screening assay to identify cytotoxic compounds using the IEC-6 intestinal epithelial cell line. [Related pubchem assays: 1700 (Primary screen.), 1834 (Confirmation screen.), 1858 (Summary AID.), 1905 (Counterscreen.)]; format: functional
[6] = HepG2 cell cytotoxicity, dose response, cytotoxicity control for non-replicating M. tuberculosis project (AID 489018); format: functional; conditions: Mycobacterium tuberculosis
[7] = Counterscreen for AddAB inhibitors: absorbance-based bacterial cell-based high throughput dose response assay for inhibitors of bacterial viability. [Related pubchem assays (depositor defined):AID435030, AID449728, AID449731, AID488942, AID488955, AID488956]; format: functional
[8] = test system: Streptococcus sp. 'group A'; assay: Streptococcus pyogenes SK(-)GAS viability under kanamycin – luminescence, BacTiterGlo, confirmation, counter-screen for streptokinase expression inhibitor project, dose response (AID 1900); format: functional, organism-based
[9] = HEK-293T viability loss after treatment – luminescence, T-cell screen hits, cytotoxicity control for TCR NF-kB inhibitor project, dose response (AID 489026); format: functional, cell-based;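 also: cells exposed to compound about 14 hours before the viability readout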
Hexokinase HKDC1 = molecular target: T1, Hexokinase HKDC1 (Homo sapiens, UniProt Q2TB90); assay: activation of HKDC1 glucose phosphorylation – biochemical, W721R variant, dose response (AID 504730); format: functional
T1 sequence (Q2TB90 whole entry): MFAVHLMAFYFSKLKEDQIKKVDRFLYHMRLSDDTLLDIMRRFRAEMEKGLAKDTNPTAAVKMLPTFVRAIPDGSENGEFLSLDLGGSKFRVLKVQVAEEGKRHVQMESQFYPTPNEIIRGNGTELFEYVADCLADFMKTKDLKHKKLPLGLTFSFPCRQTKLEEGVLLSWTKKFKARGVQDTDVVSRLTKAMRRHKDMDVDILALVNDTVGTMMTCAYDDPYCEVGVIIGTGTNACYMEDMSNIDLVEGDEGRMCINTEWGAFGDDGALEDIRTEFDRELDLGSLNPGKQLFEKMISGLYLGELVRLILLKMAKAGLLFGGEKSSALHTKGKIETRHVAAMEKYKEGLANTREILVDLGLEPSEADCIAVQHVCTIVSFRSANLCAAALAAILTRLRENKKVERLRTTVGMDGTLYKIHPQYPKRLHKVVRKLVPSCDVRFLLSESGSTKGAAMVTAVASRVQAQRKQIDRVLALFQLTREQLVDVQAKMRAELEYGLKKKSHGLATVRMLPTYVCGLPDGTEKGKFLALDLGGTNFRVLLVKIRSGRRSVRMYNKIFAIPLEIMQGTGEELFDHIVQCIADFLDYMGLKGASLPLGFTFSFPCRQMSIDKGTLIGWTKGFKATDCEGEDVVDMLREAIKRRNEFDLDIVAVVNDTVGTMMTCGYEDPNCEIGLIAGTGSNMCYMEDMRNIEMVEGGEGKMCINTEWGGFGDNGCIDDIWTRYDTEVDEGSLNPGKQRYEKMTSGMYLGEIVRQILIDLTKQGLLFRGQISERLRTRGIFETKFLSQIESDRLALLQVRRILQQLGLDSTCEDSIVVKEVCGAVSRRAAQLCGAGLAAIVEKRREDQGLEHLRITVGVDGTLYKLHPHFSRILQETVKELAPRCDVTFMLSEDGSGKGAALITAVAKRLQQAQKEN

Hexokinase-1 = molecular target: T2, Hexokinase-1 (Homo sapiens, UniProt P19367); assay: HK1 enzyme activation by HKDC1 hits – biochemical, selectivity assay for HKDC1 activator project, dose response (AID 504762); format: functional
T2 sequence (P19367 whole entry): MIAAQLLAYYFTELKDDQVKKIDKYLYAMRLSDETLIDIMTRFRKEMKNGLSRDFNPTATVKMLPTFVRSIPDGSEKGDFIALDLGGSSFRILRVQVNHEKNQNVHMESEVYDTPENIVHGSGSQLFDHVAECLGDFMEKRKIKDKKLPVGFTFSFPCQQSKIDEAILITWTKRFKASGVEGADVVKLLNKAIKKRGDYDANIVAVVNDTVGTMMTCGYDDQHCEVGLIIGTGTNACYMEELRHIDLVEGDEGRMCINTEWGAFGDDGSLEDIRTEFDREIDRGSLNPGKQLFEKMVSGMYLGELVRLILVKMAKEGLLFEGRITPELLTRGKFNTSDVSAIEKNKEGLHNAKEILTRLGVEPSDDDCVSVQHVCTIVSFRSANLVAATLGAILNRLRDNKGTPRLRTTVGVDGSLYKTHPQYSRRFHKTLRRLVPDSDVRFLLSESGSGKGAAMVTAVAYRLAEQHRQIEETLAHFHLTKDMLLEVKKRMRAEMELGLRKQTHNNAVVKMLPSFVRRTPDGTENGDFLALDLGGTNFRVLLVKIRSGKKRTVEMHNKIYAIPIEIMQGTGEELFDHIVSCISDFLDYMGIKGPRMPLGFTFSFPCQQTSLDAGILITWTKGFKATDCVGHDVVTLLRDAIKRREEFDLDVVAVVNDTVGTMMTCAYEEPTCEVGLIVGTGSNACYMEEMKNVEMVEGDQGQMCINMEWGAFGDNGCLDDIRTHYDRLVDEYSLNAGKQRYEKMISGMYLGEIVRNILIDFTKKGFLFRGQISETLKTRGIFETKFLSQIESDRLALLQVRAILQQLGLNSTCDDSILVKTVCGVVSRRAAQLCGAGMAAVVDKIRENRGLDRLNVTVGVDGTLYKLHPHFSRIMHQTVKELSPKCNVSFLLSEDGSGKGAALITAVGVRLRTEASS

[10] = molecular target: T3, Corticotropin-releasing factor receptor 2/Corticotropin-releasing factor-binding protein (Homo sapiens, UniProt P24387+Q13324); assay: activators of CRF receptor 2 with binding protein – uHTS hits, confirmation (AID 602473); format: functional; conditions: read-out: EC50_Mean
T3 sequence (Q13324 whole entry): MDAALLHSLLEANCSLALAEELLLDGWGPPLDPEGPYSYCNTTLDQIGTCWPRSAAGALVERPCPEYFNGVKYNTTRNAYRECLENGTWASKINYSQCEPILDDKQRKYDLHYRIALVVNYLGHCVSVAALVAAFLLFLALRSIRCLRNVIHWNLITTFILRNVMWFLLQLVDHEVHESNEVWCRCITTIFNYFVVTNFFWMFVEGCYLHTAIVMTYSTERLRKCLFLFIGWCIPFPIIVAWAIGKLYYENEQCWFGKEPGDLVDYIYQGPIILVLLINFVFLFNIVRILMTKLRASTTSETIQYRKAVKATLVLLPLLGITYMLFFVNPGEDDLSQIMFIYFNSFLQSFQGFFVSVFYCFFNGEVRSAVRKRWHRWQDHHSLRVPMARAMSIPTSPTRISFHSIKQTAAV
T3 sequence (P24387 whole entry): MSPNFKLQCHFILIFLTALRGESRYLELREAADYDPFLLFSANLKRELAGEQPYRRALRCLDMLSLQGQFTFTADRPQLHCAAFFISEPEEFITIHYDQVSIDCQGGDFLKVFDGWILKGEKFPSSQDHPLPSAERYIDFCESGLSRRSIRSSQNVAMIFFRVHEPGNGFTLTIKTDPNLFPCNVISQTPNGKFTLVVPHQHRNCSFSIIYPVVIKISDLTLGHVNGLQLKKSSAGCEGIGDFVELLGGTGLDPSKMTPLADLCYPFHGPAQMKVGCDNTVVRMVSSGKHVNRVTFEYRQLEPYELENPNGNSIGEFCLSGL

[11] = molecular target: T4, Short transient receptor potential channel 4 (Mus musculus, UniProt Q9QUQ5); assay: calcium entry via TRPC4 opening agents – cell-based, HEK293 TRPC4/mu-opioid, Fluo-4 calcium, dose response (AID 434937); format: functional
T4 sequence (Q9QUQ5 whole entry): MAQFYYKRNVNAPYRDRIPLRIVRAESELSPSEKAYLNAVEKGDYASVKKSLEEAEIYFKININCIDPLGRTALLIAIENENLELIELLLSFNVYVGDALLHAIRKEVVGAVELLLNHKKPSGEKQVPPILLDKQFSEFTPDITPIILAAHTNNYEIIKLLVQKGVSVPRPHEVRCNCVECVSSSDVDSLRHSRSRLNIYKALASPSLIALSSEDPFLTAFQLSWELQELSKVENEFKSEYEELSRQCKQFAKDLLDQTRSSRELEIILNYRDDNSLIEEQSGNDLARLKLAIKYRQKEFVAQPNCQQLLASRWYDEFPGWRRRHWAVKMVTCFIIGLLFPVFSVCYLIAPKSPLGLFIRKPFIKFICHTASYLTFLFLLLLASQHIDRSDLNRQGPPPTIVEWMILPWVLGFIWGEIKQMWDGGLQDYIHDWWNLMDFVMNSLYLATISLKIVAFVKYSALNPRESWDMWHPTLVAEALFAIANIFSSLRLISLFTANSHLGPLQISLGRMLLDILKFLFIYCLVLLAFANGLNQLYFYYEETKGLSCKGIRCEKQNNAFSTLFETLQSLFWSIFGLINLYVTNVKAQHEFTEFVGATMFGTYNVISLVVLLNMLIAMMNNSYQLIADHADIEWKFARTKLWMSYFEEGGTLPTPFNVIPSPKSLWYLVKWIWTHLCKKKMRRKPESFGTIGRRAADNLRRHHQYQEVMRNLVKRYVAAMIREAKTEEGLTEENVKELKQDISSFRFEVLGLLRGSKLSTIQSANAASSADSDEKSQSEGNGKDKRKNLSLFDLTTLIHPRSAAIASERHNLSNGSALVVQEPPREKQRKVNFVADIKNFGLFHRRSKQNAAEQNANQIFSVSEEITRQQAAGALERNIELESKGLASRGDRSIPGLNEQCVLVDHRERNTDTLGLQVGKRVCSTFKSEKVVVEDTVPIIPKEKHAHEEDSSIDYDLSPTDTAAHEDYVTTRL

[12] = molecular target: 26S proteasome non-ATPase regulatory subunit 14 (Homo sapiens, UniProt O00487); assay: inhibition of proteasome subunit RPN11 – biochemical, fluorescence polarization, uHTS hits, confirmation (AID 602368); format: functional
Chain of 26S proteasome non-ATPase regulatory subunit 14 (O00487 whole entry): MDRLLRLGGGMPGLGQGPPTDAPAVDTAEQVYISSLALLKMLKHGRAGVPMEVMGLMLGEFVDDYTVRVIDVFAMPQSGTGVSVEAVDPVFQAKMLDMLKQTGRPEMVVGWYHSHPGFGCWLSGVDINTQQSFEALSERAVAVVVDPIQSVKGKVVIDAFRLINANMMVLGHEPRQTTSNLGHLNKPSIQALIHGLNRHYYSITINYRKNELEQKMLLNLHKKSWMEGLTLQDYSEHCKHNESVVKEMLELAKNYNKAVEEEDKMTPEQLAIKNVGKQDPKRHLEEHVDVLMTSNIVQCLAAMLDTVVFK

Prothrombin = Prothrombin (Bos taurus, UniProt P00735); assay: thrombin protease inhibitors – biochemical, fluorescence polarization, uHTS hits, dose response (AID 602369); format: functional
[13] = molecular target: 72 kDa type IV collagenase (Homo sapiens, UniProt P08253); assay: Dose Response validation of uHTS RPN11 inhibitor hits using a MMP-2 Fluorescence assay.; format: functional
Chain of 72 kDa type IV collagenase (P08253 whole entry): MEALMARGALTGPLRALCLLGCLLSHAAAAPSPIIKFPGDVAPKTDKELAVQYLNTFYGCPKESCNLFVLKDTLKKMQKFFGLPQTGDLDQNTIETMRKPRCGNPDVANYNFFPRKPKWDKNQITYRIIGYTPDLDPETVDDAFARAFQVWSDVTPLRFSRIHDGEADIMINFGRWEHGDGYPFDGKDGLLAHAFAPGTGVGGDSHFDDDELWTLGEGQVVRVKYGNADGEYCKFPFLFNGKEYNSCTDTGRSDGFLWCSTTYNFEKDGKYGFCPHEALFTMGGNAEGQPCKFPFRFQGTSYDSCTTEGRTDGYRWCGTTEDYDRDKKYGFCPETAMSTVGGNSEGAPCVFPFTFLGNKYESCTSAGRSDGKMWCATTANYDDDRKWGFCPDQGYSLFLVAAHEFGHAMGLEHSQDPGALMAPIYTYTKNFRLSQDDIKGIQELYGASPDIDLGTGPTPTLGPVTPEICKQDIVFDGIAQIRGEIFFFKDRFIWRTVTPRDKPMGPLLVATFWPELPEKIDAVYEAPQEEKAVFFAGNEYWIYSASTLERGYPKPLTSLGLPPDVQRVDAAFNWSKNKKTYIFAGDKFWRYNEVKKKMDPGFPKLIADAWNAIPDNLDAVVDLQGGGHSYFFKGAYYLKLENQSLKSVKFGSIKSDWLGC

[14] = molecular target: T5, Alkaline phosphatase, tissue-nonspecific isozyme (Homo sapiens, UniProt P05186); assay: activation of tissue-nonspecific alkaline phosphatase – biochemical, TNAP isozyme, mouse IAP uHTS hits, selectivity assay for mouse IAP activator project, dose response (AID 488880); format: functional
T5 sequence (P05186 whole entry): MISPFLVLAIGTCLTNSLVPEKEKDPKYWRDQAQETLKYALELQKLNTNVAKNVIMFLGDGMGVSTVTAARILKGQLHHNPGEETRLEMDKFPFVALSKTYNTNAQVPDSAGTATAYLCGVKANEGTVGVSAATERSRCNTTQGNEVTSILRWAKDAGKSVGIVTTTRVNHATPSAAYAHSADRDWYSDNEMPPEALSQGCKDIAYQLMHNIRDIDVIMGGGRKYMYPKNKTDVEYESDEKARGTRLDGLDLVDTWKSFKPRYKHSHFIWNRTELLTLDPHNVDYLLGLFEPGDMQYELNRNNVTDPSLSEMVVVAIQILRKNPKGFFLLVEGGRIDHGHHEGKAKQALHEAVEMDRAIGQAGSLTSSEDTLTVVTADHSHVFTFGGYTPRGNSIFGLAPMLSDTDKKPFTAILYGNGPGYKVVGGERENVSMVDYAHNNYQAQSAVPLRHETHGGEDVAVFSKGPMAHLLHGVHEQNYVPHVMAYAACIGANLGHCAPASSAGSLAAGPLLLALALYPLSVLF

[15] = molecular target: Intestinal-type alkaline phosphatase (Mus musculus, UniProt P24822); assay: mouse intestinal alkaline phosphatase activators, dose response, biochemical, luminescence, uHTS hits (AID 488783); format: functional
Chain of Intestinal-type alkaline phosphatase (Mus musculus, UniProt P24822) (P24822 whole entry): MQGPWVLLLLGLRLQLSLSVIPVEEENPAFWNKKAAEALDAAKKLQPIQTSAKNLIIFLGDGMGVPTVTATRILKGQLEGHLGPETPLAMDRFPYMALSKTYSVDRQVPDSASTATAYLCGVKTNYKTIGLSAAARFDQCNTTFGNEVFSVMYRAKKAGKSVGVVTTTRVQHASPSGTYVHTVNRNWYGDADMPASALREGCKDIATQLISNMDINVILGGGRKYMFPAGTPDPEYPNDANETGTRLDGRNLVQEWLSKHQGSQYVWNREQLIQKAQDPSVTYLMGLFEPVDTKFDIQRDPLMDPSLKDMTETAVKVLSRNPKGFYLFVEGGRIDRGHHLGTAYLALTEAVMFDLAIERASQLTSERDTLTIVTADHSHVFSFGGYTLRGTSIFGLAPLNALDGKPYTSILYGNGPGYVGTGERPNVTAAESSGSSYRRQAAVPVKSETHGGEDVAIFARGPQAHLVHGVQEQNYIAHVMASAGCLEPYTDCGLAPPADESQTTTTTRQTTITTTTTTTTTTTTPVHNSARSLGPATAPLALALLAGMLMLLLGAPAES

[16] = molecular target: Intestinal-type alkaline phosphatase (Homo sapiens, UniProt P09923); assay: activation of human intestinal alkaline phosphatase – biochemical, dose response (AID 488873); format: functional
Chain of Intestinal-type alkaline phosphatase (Homo sapiens, UniProt P09923) (P09923 whole entry): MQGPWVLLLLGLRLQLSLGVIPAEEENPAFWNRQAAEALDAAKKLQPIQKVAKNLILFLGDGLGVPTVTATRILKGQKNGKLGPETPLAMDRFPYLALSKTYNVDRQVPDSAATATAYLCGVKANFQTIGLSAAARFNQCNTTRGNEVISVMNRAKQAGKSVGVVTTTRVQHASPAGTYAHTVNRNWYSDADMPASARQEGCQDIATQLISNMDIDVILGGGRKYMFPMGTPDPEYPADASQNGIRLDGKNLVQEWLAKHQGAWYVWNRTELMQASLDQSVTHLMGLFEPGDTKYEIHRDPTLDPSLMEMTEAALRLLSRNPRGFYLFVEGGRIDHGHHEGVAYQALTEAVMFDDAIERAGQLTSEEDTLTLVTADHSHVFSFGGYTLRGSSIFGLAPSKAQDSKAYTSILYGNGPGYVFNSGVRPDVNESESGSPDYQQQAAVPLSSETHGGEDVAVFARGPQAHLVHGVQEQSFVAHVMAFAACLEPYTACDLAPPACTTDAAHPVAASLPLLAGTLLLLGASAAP

## O=C(N/N=C/c1c(O)ccc2ccccc12)c1ccc(Br)o1
Cells [1]
  EC50: > 350 µM (not active)
INS1
  AC50: 0.779 µM (active)
HEK293
  AC50: 6.22 µM (active)
Cells [2]
  EC50: 37.3 µM (active)
Streptococcus
  EC50: 2.83 µM (active)
[3]
  CC50: 0.493 µM (active)
Exodeoxyribonuclease V
  IC50: > 119 µM (inactive)
[4]
  CC50: 2.71 µM (active)
[5]
  IC50: 9.35 µM (active)
[6]
  CC50: 5.73 µM (active)
[7]
  IC50: > 119 µM (inactive)
[8]
  EC50: 0.982 µM (active)
[9]
  IC50: > 80 µM (inactive)

## COC(=O)Cn1c2ccc(F)cc2c2nc(C)sc21
Hexokinase HKDC1
  EC50: 8.74 µM (active)
Hexokinase-1
  EC50: 8.1 µM (active)

## CCC1(c2ccc(F)cc2)NC(=O)N(CC(=O)c2cc(C)n(C3CC3)c2C)C1=O (stereo not drawn)
[10]
  EC50: 4.88 µM (active)
[11]
  EC50: 5.96 µM (active)

## CN(CCO)c1ccc(C=NNc2ccc([N+](=O)[O-])cc2S(=O)(=O)Nc2ccccc2C(=O)O)cc1
[12]
  IC50: 37 µM (active)
Prothrombin
  IC50: 36.4 µM (active)
[13]
  IC50: > 100 µM (inactive)
[14]
  EC50: 19.7 µM (active)
[15]
  EC50: 17.5 µM (active)
[16]
  EC50: 26.6 µM (active)
